Reference: ChEMBL document CHEMBL1201862, “PubChem BioAssay data set” (2004)
Blank lines part the entries; values can stand above or below the compound they belong to. Activity calls are given as the source filed them.

Assays:
Format in all cases: functional
[1] = biological target: Dual specificity tyrosine-phosphorylation-regulated kinase 1B (Homo sapiens, UniProt Q9Y463); assay: Navigating the Kinome. Panel member name: DYRK1B
[2] = biological target: G protein-coupled receptor kinase 5 (Homo sapiens, UniProt P34947); assay: Navigating the Kinome. Panel member name: GPRK5
[3] = biological target: Cyclin-dependent kinase 9 (Homo sapiens, UniProt P50750);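 further: value from the CDK9 entry of a kinome-spanning kinase panel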
Sequence of Cyclin-dependent kinase 9 (P50750 whole entry): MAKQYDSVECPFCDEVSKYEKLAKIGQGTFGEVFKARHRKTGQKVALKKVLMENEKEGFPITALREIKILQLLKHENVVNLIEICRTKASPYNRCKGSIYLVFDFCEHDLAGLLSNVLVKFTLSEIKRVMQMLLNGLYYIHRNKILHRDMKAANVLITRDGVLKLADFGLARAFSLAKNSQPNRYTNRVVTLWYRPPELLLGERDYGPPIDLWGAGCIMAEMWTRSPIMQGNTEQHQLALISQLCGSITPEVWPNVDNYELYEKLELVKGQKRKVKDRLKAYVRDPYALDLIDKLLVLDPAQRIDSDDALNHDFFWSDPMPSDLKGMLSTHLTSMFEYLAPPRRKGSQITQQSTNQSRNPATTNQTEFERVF

[4] = biological target: Mitogen-activated protein kinase kinase kinase kinase 4 (Homo sapiens, UniProt O95819)
Sequence of Mitogen-activated protein kinase kinase kinase kinase 4 (O95819 whole entry): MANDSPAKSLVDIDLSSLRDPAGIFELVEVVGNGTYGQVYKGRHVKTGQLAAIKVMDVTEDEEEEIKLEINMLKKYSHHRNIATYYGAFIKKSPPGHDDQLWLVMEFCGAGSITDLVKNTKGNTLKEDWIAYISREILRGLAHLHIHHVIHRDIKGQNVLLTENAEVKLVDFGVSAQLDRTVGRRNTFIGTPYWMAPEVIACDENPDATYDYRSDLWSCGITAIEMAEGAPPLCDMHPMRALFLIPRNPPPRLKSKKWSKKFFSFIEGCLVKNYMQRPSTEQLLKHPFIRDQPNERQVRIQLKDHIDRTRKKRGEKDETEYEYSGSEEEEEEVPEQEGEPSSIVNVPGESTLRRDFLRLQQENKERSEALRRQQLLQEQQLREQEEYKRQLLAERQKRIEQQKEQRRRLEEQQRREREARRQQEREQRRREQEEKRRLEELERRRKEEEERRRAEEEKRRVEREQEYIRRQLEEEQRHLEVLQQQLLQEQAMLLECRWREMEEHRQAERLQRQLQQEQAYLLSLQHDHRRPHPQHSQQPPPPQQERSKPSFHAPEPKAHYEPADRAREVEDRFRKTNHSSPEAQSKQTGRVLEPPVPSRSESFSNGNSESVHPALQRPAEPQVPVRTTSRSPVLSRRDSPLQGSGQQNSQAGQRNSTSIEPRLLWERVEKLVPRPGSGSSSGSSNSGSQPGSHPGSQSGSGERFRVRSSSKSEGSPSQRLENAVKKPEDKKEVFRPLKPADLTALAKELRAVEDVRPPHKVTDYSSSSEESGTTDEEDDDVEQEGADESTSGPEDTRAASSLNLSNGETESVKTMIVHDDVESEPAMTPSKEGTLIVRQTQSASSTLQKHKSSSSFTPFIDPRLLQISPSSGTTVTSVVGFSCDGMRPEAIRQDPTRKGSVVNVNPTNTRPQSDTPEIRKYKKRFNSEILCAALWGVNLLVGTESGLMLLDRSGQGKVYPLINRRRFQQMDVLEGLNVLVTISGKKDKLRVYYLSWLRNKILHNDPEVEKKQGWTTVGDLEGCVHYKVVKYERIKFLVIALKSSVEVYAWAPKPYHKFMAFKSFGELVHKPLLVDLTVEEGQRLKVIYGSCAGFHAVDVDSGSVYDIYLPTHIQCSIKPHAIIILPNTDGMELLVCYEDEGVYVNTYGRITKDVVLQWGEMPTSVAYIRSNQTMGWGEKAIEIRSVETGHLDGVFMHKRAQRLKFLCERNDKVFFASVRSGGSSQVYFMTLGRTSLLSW

[5] = biological target: Serine/threonine-protein kinase pim-3 (Homo sapiens, UniProt Q86V86);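 further: value obtained as one member of a broad kinase panel profiling effort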
[6] = biological target: RAC-alpha serine/threonine-protein kinase (Homo sapiens, UniProt P31749);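 further: AKT1 affinity measured as one member of a kinome-wide kinase profiling panel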
[7] = biological target: Leukocyte tyrosine kinase receptor (Homo sapiens, UniProt P29376); assay: Navigating the Kinome. Panel member name: LTK
[8] = biological target: Protein kinase C zeta type (Homo sapiens, UniProt Q05513);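 further: measured as one member of a broad kinase profiling panel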
Sequence of Protein kinase C zeta type (Q05513 whole entry): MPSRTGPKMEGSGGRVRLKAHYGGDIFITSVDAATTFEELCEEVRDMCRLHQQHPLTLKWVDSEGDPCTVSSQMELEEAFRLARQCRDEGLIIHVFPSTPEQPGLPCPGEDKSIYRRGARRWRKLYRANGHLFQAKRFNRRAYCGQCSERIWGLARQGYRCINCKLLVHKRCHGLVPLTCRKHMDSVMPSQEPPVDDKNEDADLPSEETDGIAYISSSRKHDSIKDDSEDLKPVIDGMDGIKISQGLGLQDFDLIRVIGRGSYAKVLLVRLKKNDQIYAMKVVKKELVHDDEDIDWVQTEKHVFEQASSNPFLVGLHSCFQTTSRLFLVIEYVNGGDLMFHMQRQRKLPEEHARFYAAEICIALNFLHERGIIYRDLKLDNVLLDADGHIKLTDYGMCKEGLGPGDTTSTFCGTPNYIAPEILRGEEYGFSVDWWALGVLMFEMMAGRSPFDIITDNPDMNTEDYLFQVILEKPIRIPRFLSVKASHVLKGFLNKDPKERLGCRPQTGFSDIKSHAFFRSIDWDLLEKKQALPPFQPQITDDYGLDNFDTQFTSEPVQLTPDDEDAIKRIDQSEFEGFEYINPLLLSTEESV

[9] = biological target: Leucine-rich repeat serine/threonine-protein kinase 2 (Homo sapiens, UniProt Q5S007);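 further: value from a broad kinome-wide panel profiling study in which LRRK2 was one of the kinases tested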
[10] = biological target: Platelet-derived growth factor receptor alpha (Homo sapiens, UniProt P16234); assay: Navigating the Kinome. Panel member name: PDGFRA
Activin receptor type-1 = Activin receptor type-1 (Homo sapiens, UniProt Q04771); assay: Navigating the Kinome. Panel member name: ACVR1
[11] = biological target: Ribosomal protein S6 kinase beta-1 (Homo sapiens, UniProt P23443);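 further: measured as one member of a kinome-wide profiling panel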
[12] = biological target: Macrophage-stimulating protein receptor (Homo sapiens, UniProt Q04912); assay: Navigating the Kinome. Panel member name: MST1R
[13] = biological target: Protein kinase C iota type (Homo sapiens, UniProt P41743);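 further: measured within a kinome-wide kinase panel, PRKCI as panel member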
Sequence of Protein kinase C iota type (P41743 whole entry): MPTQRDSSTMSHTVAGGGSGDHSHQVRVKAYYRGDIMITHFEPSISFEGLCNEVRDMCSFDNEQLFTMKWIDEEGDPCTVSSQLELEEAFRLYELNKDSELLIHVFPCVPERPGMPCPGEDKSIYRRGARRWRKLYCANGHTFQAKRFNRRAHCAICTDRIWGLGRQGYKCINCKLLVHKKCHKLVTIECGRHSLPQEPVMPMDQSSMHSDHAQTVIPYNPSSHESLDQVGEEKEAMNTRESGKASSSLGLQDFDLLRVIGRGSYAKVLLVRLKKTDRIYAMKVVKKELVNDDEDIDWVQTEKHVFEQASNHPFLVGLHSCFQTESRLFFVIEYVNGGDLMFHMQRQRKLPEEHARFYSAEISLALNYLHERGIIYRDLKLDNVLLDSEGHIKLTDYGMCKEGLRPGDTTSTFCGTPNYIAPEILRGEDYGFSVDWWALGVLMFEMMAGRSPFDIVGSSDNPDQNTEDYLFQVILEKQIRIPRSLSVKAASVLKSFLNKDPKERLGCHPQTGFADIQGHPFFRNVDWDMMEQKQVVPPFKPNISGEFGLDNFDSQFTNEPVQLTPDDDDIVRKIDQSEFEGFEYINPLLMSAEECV

[14] = biological target: Serine/threonine-protein kinase TBK1 (Homo sapiens, UniProt Q9UHD2); assay: Navigating the Kinome. Panel member name: TBK1
Activated CDC42 kinase 1 = Activated CDC42 kinase 1 (Homo sapiens, UniProt Q07912); assay: Navigating the Kinome. Panel member name: ACK1
Sequence of Activated CDC42 kinase 1 (Q07912 whole entry): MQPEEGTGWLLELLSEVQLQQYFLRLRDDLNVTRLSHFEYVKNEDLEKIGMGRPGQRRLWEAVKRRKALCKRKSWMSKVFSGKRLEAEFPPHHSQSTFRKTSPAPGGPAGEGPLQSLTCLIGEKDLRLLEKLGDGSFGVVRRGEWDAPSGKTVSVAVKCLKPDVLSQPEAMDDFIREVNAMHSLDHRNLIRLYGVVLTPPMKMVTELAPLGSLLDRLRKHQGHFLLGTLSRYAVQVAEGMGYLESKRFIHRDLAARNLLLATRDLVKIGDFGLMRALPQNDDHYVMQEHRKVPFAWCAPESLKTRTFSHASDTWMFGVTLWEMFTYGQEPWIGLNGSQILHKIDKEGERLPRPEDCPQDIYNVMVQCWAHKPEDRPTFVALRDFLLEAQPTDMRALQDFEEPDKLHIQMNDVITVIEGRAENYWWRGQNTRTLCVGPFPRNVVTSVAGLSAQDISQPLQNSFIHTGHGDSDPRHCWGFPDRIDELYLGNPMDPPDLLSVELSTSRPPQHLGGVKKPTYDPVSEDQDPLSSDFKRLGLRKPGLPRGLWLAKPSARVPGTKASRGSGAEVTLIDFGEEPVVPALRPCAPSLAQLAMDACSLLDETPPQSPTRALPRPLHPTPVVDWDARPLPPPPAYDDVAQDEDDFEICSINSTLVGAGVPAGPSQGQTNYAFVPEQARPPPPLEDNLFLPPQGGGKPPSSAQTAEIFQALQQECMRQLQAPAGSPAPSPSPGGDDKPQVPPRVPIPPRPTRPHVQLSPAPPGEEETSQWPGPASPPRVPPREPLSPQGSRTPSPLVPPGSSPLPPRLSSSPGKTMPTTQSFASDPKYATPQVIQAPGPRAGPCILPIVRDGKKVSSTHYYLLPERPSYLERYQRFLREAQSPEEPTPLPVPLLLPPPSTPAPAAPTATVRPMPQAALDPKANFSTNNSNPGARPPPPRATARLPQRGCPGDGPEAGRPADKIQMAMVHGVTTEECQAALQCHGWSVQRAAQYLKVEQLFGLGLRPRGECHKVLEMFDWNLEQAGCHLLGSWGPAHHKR

[15] = biological target: Mitogen-activated protein kinase 14 (Homo sapiens, UniProt Q16539);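 further: part of a kinome-wide panel, MAPK14 entry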
[16] = biological target: Cyclin-dependent kinase 7 (Homo sapiens, UniProt P50613);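 further: value comes from a kinome-wide kinase profiling panel in which CDK7 is one member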
Sequence of Cyclin-dependent kinase 7 (P50613 whole entry): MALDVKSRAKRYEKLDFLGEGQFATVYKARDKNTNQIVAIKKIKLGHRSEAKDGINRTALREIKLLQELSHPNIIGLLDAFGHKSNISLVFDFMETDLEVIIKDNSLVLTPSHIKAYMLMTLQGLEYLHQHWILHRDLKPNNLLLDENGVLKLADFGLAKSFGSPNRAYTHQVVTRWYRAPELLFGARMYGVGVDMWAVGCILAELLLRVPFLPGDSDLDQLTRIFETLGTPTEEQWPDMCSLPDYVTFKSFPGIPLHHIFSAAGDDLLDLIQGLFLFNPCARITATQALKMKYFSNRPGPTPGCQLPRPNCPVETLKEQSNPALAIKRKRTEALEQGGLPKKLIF

[17] = biological target: Inhibitor of nuclear factor kappa-B kinase subunit epsilon (Homo sapiens, UniProt Q14164); assay: Navigating the Kinome. Panel member name: IKBKE
[18] = biological target: Cyclin-dependent kinase 5 (Homo sapiens, UniProt Q00535);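 further: CDK5 measured as one member of a kinase profiling panel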
[19] = biological target: Tyrosine-protein kinase Lyn (Homo sapiens, UniProt P07948);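 further: lyn as one member of a kinase panel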
[20] = biological target: Protein-tyrosine kinase 2-beta (Homo sapiens, UniProt Q14289)
[21] = biological target: Tyrosine-protein kinase Lck (Homo sapiens, UniProt P06239);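 further: lck was assayed as one member of a kinase panel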
[22] = biological target: Tyrosine-protein kinase receptor UFO (Homo sapiens, UniProt P30530)
[23] = biological target: Cyclin-dependent kinase 2 (Homo sapiens, UniProt P24941);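 further: CDK2 measured as one member of a broad kinome profiling panel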
[24] = biological target: Vascular endothelial growth factor receptor 3 (Homo sapiens, UniProt P35916);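 further: value from a kinome-wide profiling panel, with FLT4 as the panel member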
Insulin receptor = Insulin receptor (Homo sapiens, UniProt P06213);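 further: insulin receptor kinase tested as one member of a kinome-wide kinase panel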
LIM domain kinase 1 = LIM domain kinase 1 (Homo sapiens, UniProt P53667); assay: Navigating the Kinome. Panel member name: LIMK1
[25] = biological target: Cyclin-dependent kinase 19 (Homo sapiens, UniProt Q9BWU1); assay: Navigating the Kinome. Panel member name: CDC2L6
[26] = biological target: Rho-associated protein kinase 2 (Homo sapiens, UniProt O75116)
[27] = biological target: Inhibitor of nuclear factor kappa-B kinase subunit beta (Homo sapiens, UniProt O14920)
[28] = biological target: Eukaryotic elongation factor 2 kinase (Homo sapiens, UniProt O00418)
[29] = biological target: Calcium/calmodulin-dependent protein kinase type II subunit beta (Homo sapiens, UniProt Q13554)
[30] = IC50 of insulin release inhibition, rat insulinoma INS-1E line, 5 mM glucose, cell-based (AID 1117331)

Sequence of Dual specificity tyrosine-phosphorylation-regulated kinase 1B (Q9Y463 whole entry): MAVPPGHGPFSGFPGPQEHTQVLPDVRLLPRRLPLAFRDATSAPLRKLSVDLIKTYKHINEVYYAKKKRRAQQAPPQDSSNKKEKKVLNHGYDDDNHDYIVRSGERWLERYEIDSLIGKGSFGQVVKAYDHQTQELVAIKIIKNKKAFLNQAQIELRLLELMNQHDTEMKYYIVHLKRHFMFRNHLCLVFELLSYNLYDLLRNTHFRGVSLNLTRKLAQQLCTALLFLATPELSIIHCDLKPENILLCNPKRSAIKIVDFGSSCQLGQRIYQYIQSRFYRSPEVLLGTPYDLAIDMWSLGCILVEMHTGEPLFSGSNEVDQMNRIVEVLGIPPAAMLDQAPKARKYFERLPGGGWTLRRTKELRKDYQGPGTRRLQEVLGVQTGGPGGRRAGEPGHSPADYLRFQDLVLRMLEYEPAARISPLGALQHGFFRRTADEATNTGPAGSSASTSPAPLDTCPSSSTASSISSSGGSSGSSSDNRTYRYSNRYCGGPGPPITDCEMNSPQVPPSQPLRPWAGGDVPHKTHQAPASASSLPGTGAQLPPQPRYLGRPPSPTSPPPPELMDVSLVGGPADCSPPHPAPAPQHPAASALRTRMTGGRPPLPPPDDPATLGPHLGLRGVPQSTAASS

Ki [1]: 0.000631 µM (active)
pKi [1]: 9.2
Ki [2]: 2.51 µM (active)
pKi [2]: 5.6
Ki [3]: 0.00398 µM (active)
pKi [3]: 8.4
Ki [4]: 1.58 µM (active)
pKi [4]: 5.8
Ki [5]: 0.398 µM (active)
pKi [5]: 6.4
Ki [6]: 7.94 µM (active)
pKi [6]: 5.1
Ki [7]: > 2.51 µM (inactive)
Ki [8]: 0.794 µM (active)
pKi [8]: 6.1
Ki [9]: 0.316 µM (active)
pKi [9]: 6.5
Ki [10]: > 2.51 µM (inactive)
Ki (Activin receptor type-1): 2 µM (active)
pKi (Activin receptor type-1): 5.7
Ki [11]: > 6.31 µM (inactive)
Ki [12]: > 3.98 µM (inactive)
Ki [13]: 0.794 µM (active)
pKi [13]: 6.1
Ki [14]: > 3.16 µM (inactive)
Ki (Activated CDC42 kinase 1): 1.26 µM (active)
pKi (Activated CDC42 kinase 1): 5.9
Ki [15]: > 3.98 µM (inactive)
Ki [16]: 0.158 µM (active)
pKi [16]: 6.8
Ki [17]: > 3.16 µM (inactive)
Ki [18]: 0.316 µM (active)
pKi [18]: 6.5
Compound: NC(=O)c1cc(-c2ccnc(N)n2)[nH]c1-c1ccc(Cl)cc1Cl

Ki [19]: 0.316 µM (active)
Ki [20]: > 1.58 µM (inactive)
Ki [21]: 0.398 µM (active)
Ki [22]: 0.01 µM (active)
Ki [23]: 0.126 µM (active)
Ki [24]: 0.0251 µM (active)
Ki (Insulin receptor): > 5.01 µM (inactive)
Ki (LIM domain kinase 1): 0.794 µM (active)
Ki [25]: > 100 µM (inactive)
Ki [26]: 0.0126 µM (active)
Ki [27]: 1.26 µM (active)
Ki [28]: 1.26 µM (active)
Ki [29]: 0.251 µM (active)
Compound: NC(COc1cncc(-c2ccc3c(c2)C(=Cc2ccco2)C(=O)N3)c1)Cc1c[nH]c2ccccc12 (configuration not stated)

Compound: Cc1ccc(-n2nc(C(C)(C)C)cc2NC(=O)Nc2ccc(OCCN3CCOCC3)c3ccccc23)cc1 [DORAMAPIMOD]
IC50 [30]: > 33.3 µM (inactive)
